According to ChEMBL document CHEMBL1154392 (Bioorg Med Chem Lett, 2009):

What was measured:
A-375 = experiment: Cytotoxicity against human A375 cells expressing B-RafV600E mutant; type: functional, cell-based
[1] = biological target: Serine/threonine-protein kinase B-raf (Homo sapiens, UniProt P15056); experiment: Inhibition of human recombinant B-Raf expressed in Sf9 cells assessed as inhibition of Mek1 phosphorylation
HT-29 = experiment: Cytotoxicity against human HT-29 cells expressing B-RafV600E mutant; type: functional, cell-based
Caco-2 = experiment: Cytotoxicity against human Caco-2 cells expressing wild type B-Raf; type: functional, cell-based
[2] = biological target: Platelet-derived growth factor receptor alpha (Homo sapiens, UniProt P16234); experiment: Inhibition of PDGFRalpha
[3] = biological target: Ribosomal protein S6 kinase alpha-1 (Homo sapiens, UniProt Q15418); experiment: Inhibition of RSk1
[4] = biological target: Tyrosine-protein kinase Lyn (Homo sapiens, UniProt P07948); experiment: Inhibition of LYN
[5] = biological target: Protein kinase C beta type (Homo sapiens, UniProt P05771); experiment: Inhibition of PKCbeta
[6] = biological target: Mitogen-activated protein kinase 1 (Homo sapiens, UniProt P28482); experiment: Inhibition of ERK2
[7] = biological target: Tyrosine-protein kinase ABL1 (Homo sapiens, UniProt P00519)
[8] = biological target: Protein kinase C alpha type (Homo sapiens, UniProt P17252); experiment: Inhibition of PKCalpha
[9] = biological target: Inhibitor of nuclear factor kappa-B kinase subunit beta (Homo sapiens, UniProt O14920); experiment: Inhibition of IKK-beta
[10] = biological target: Tyrosine-protein kinase Fyn (Homo sapiens, UniProt P06241); experiment: Inhibition of FYN
[11] = biological target: Inhibitor of nuclear factor kappa-B kinase subunit alpha (Homo sapiens, UniProt O15111); experiment: Inhibition of IKKalpha
[12] = biological target: Casein kinase I isoform gamma-1 (Homo sapiens, UniProt Q9HCP0); experiment: Inhibition of CK1gamma1
[13] = biological target: Serine/threonine-protein kinase Chk1 (Homo sapiens, UniProt O14757); experiment: Inhibition of CHK1
[14] = biological target: Hepatocyte growth factor receptor (Homo sapiens, UniProt P08581); experiment: Inhibition of Met
[15] = biological target: Mitogen-activated protein kinase 14 (Homo sapiens, UniProt Q16539); experiment: Inhibition of p38alpha
Aurora kinase B = Aurora kinase B (Homo sapiens, UniProt Q96GD4); experiment: Inhibition of Aurora B
[16] = biological target: MAP kinase-activated protein kinase 2 (Homo sapiens, UniProt P49137); experiment: Inhibition of MK2
[17] = biological target: Mitogen-activated protein kinase kinase kinase kinase 2 (Homo sapiens, UniProt Q12851); experiment: Inhibition of GCK
[18] = biological target: Cyclin-dependent kinase 2 (Homo sapiens, UniProt P24941); experiment: Inhibition of CDK2
[19] = biological target: Cyclin-dependent kinase 1 (Homo sapiens, UniProt P06493); experiment: Inhibition of CDK1
[20] = biological target: Tyrosine-protein kinase HCK (Homo sapiens, UniProt P08631); experiment: Inhibition of HCK
[21] = biological target: Proto-oncogene tyrosine-protein kinase Src (Homo sapiens, UniProt P12931); experiment: Inhibition of SRC
[22] = biological target: Rho-associated protein kinase 1 (Homo sapiens, UniProt Q13464); experiment: Inhibition of ROCK1
[23] = Inhibition of VEGFR2
[24] = Inhibition of PKA

Chain of Serine/threonine-protein kinase B-raf (P15056 whole entry): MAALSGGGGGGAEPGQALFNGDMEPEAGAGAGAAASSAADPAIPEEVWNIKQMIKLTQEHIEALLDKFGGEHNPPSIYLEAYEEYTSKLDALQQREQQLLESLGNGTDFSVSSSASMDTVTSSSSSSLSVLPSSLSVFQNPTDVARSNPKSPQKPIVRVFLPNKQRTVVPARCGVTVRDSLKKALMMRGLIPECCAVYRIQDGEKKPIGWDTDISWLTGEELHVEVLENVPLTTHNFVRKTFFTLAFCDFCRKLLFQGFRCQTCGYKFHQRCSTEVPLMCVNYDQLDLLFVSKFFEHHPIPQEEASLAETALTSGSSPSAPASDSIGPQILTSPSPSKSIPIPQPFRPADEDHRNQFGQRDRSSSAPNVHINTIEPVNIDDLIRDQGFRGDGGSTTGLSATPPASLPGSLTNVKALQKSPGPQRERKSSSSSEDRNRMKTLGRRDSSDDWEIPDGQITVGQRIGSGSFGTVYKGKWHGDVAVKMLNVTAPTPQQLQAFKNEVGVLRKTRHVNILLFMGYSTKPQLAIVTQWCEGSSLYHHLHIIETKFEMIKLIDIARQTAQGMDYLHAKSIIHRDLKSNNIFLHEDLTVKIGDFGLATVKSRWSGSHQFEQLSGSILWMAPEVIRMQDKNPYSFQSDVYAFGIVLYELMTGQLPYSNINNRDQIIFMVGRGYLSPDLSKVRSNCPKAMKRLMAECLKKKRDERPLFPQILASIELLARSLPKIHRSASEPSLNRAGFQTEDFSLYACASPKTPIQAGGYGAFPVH
Chain of Tyrosine-protein kinase ABL1 (P00519 whole entry): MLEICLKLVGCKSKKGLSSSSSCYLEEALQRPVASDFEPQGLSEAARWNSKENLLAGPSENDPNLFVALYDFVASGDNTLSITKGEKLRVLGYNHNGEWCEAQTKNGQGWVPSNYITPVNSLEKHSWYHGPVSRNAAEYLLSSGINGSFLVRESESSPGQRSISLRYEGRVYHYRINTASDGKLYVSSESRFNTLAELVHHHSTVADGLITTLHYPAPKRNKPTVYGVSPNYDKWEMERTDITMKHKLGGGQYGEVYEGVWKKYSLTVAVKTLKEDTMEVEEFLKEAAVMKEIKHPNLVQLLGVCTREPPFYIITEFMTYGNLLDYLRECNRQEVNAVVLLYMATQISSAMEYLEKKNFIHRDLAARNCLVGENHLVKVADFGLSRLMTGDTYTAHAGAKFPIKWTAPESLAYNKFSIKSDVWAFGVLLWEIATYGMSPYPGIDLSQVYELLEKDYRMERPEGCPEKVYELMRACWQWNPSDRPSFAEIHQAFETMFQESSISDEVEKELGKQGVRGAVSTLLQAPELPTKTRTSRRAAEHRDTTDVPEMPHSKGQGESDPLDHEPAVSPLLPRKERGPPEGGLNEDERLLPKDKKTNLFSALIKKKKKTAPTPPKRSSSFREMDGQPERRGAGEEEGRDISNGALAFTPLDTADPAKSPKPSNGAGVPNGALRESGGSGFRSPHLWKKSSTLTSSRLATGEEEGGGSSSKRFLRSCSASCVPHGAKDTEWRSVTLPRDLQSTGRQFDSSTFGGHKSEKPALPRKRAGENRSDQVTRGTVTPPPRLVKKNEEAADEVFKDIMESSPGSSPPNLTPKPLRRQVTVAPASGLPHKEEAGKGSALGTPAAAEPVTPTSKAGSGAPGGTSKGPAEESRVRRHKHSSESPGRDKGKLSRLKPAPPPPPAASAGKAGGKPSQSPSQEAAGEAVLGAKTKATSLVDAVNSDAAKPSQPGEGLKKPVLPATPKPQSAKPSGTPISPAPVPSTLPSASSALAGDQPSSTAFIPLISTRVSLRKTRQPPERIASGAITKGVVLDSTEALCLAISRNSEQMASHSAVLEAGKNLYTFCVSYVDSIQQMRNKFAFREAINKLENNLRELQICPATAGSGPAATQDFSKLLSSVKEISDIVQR
Chain of Platelet-derived growth factor receptor alpha (P16234 whole entry): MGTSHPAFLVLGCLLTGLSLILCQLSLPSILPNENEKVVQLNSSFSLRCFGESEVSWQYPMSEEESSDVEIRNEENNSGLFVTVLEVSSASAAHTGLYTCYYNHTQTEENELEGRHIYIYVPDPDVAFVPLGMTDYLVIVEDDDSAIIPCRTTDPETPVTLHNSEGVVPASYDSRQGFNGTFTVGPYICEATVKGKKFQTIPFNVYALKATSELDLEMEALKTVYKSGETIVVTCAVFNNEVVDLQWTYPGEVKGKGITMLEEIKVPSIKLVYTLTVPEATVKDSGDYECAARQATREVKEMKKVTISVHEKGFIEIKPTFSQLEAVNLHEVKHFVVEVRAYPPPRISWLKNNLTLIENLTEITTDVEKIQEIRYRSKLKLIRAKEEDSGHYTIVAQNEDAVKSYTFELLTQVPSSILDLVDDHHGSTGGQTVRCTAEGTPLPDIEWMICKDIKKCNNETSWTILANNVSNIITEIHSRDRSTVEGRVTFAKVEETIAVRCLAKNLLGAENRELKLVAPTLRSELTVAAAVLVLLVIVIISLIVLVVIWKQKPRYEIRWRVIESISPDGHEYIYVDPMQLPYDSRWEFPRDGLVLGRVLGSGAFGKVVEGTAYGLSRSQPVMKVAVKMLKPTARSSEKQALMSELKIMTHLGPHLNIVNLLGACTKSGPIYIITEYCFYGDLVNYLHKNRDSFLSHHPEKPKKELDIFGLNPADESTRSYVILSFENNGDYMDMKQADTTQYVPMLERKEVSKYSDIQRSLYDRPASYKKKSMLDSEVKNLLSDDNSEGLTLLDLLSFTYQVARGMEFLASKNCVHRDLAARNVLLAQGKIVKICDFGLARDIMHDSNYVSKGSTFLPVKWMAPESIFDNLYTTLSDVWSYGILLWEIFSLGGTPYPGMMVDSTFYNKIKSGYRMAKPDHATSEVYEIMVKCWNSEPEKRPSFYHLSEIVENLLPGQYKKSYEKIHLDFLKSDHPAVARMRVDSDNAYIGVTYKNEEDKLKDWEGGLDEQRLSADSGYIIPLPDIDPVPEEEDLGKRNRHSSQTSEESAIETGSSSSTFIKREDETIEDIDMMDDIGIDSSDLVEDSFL
Chain of Mitogen-activated protein kinase 14 (Q16539 whole entry): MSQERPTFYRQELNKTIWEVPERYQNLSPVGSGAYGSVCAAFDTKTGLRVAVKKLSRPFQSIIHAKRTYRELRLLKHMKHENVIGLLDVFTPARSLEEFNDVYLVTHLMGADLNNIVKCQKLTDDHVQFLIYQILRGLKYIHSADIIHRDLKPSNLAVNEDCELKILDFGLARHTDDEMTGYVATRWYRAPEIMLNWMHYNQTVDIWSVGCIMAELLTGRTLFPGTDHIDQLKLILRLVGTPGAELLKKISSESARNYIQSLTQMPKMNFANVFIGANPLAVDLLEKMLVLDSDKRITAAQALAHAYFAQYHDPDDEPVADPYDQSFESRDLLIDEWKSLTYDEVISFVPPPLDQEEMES
Chain of Mitogen-activated protein kinase kinase kinase kinase 2 (Q12851 whole entry): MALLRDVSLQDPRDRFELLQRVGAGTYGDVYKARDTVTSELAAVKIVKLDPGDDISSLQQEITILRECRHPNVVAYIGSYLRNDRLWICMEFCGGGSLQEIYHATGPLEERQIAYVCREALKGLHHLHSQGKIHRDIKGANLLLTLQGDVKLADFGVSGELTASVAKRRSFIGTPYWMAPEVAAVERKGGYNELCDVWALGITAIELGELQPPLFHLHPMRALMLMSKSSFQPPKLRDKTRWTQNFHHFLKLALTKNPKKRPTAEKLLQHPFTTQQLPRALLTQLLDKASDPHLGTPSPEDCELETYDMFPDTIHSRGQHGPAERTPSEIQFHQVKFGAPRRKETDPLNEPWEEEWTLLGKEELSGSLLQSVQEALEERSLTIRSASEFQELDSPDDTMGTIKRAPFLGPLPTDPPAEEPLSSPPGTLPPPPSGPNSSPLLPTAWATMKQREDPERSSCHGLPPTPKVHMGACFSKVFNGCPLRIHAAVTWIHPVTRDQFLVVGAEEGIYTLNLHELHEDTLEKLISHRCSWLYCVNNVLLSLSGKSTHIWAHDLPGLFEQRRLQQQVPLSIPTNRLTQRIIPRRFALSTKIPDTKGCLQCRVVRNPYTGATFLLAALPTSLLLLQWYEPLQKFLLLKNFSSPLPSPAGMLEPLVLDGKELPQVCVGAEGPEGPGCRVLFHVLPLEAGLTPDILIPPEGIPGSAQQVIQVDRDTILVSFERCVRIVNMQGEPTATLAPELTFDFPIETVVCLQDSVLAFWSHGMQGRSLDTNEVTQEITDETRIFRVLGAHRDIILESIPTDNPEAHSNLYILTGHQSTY
Chain of Mitogen-activated protein kinase 1 (P28482 whole entry): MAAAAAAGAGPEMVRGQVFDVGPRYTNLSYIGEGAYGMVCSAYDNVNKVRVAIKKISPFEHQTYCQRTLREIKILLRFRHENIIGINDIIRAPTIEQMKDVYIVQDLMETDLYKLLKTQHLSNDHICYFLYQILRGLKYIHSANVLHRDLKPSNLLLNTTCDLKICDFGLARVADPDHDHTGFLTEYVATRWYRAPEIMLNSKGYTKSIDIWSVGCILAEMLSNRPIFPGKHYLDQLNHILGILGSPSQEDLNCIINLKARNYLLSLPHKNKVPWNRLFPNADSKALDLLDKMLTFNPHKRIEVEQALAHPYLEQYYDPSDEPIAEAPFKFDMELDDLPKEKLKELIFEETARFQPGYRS
Chain of Cyclin-dependent kinase 1 (P06493 whole entry): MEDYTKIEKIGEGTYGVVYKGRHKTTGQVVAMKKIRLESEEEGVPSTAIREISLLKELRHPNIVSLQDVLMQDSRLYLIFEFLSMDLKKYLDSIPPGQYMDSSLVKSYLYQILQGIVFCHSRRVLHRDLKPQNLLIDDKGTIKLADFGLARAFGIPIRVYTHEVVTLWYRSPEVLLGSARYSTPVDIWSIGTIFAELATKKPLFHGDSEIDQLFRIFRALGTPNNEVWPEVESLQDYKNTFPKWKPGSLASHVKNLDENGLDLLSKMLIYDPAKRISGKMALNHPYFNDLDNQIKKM

Work on `CC(=O)N1C[C@@H]2C[C@H]1CN2c1ccc(-c2ccnc3c(-c4ccc(F)c(O)c4)c(-c4ccncc4)nn23)cc1` yielded an IC50 (A-375) of 0.21 µM.
Work on `COc1cc(-c2c(-c3ccncc3)nn3c(-c4ccc(N5C[C@@H]6C[C@H]5CN6C)cc4C)ccnc23)ccc1F` yielded an IC50 [1] of 0.001 µM and an IC50 (A-375) of 0.933 µM.
Molecule `COc1cc(-c2c(-c3ccncc3)nn3c(-c4ccc(N5C[C@@H]6C[C@H]5CN6)cc4)ccnc23)ccc1F` has an IC50 (A-375) of 1.2 µM.
With `CN1C2CCC1CN(c1ccc(-c3ccnc4c(-c5cccc(O)c5)c(-c5ccncc5)nn34)cc1)C2` the IC50 (HT-29) was 0.27 µM, the IC50 (Caco-2) was 1.3 µM and the IC50 [1] was 0.0009 µM. For the same molecule, the IC50 (A-375) was 0.3 µM.
In the case of `COc1cccc(-c2c(-c3ccncc3)nn3c(-c4ccc(N5C[C@@H]6C[C@H]5CN6C)cc4)ccnc23)c1`, the IC50 (A-375) is reported as 0.76 µM.
`COc1cc(-c2c(-c3ccncc3)nn3c(-c4ccc(N5C[C@@H]6C[C@H]5CN6C)cc4)ccnc23)ccc1F` showed an IC50 (A-375) of 6 µM.
In the case of `CCN1C[C@@H]2C[C@H]1CN2c1ccc(-c2ccnc3c(-c4ccc(F)c(O)c4)c(-c4ccncc4)nn23)cc1`, the IC50 [1] is reported as 0.00051 µM and the IC50 (A-375) is reported as 0.2 µM.
With `COc1cccc(-c2c(-c3ccncc3)nn3c(-c4ccc(N5C[C@@H]6C[C@H]5CN6)cc4)ccnc23)c1` the IC50 [1] was 0.012 µM and the IC50 (A-375) was 1.1 µM.
Work on `COc1cccc(-c2c(-c3ccncc3)nn3c(-c4ccc(N5C[C@@H]6C[C@H]5CN6)cc4F)ccnc23)c1` yielded an IC50 [1] of 0.00044 µM and an IC50 (A-375) of 0.504 µM.
Work on `COc1cccc(-c2c(-c3ccncc3)nn3c(-c4ccc(N5CC6CCC(C5)N6C)cc4)ccnc23)c1` yielded an IC50 [1] of 0.017 µM and an IC50 (A-375) of 1.9 µM.
For `CN1C2CCC1CN(c1ccc(-c3ccnc4c(-c5ccc(Cl)c(O)c5)c(-c5ccncc5)nn34)cc1)C2`, the IC50 [1] was < 0.00032 µM and the IC50 (A-375) was 0.17 µM.
In the case of `CN1C[C@@H]2C[C@H]1CN2c1ccc(-c2ccnc3c(-c4cccc(O)c4)c(-c4ccncc4)nn23)c(Cl)c1`, the IC50 [1] is reported as < 0.00032 µM and the IC50 (A-375) is reported as < 0.01 µM.
In the case of `CN1C[C@@H]2C[C@H]1CN2c1ccc(-c2ccnc3c(-c4ccc(F)c(O)c4)c(-c4ccncc4)nn23)cc1`, the IC50 [1] is reported as < 0.00032 µM and the IC50 (A-375) is reported as 0.076 µM.
For `Cc1cc(N2C[C@@H]3C[C@H]2CN3C)ccc1-c1ccnc2c(-c3ccc(F)c(O)c3)c(-c3ccncc3)nn12`, the IC50 [1] was < 0.00032 µM and the IC50 (A-375) was 0.015 µM.
Work on `Oc1cccc(-c2c(-c3ccncc3)nn3c(-c4ccc(N[C@H]5CN6CCC5CC6)cc4)ccnc23)c1` yielded an IC50 [1] of 0.001 µM and an IC50 (A-375) of 0.385 µM.
With `Cc1cc(N2C[C@@H]3C[C@H]2CN3C)ccc1-c1ccnc2c(-c3cccc(O)c3)c(-c3ccncc3)nn12` the IC50 [1] was < 0.00032 µM and the IC50 (A-375) was 0.031 µM.
With `Oc1cccc(-c2c(-c3ccncc3)nn3c(-c4ccc(N5C[C@@H]6C[C@H]5CN6)cc4)ccnc23)c1` the IC50 [1] was 0.00049 µM and the IC50 (A-375) was 0.3 µM.
With `Cc1cc(N2C[C@@H]3C[C@H]2CN3)ccc1-c1ccnc2c(-c3cccc(O)c3)c(-c3ccncc3)nn12` the IC50 (A-375) was 0.065 µM.
In the case of `CN1C[C@@H]2C[C@H]1CN2c1ccc(-c2ccnc3c(-c4cccc(O)c4)c(-c4ccncc4)nn23)c(F)c1`, the IC50 [1] is reported as < 0.00032 µM and the IC50 (A-375) is reported as 0.012 µM.
`Oc1cccc(-c2c(-c3ccncc3)nn3c(-c4ccc(N[C@@H]5CN6CCC5CC6)cc4)ccnc23)c1` gave an IC50 [1] of 0.0015 µM and an IC50 (A-375) of 0.37 µM.
In the case of `CN1C[C@@H]2C[C@H]1CN2c1ccc(-c2ccnc3c(-c4cccc(O)c4)c(-c4ccncc4)nn23)cc1`, the IC50 [2] is reported as 6.56 µM, the IC50 [3] is reported as 9.71 µM and the IC50 [4] is reported as 1.76 µM. The IC50 [5] was 0.119 µM, the IC50 [6] was > 50 µM and the IC50 [7] was 0.563 µM. For the same molecule, the IC50 [8] was 2.46 µM, the IC50 [9] was > 50 µM and the IC50 [10] was 1.94 µM. For the same molecule, the IC50 [11] was > 50 µM, the IC50 [12] was 9.51 µM and the IC50 [13] was 18.6 µM. The IC50 [14] was 3.1 µM, the IC50 [15] was 0.069 µM and the IC50 (Aurora kinase B) was 25.5 µM. It also gave an IC50 [16] of 17.1 µM, an IC50 [17] of 4.1 µM and an IC50 [1] of 0.00038 µM. It also gave an IC50 [18] of 26.4 µM, an IC50 [19] of 28.4 µM and an IC50 [20] of 1.24 µM. For the same molecule, the IC50 [21] was 0.675 µM, the IC50 [22] was 17.6 µM and the IC50 (A-375) was 0.077 µM. For the same molecule, the IC50 [23] was 0.222 µM and the IC50 [24] was 1.79 µM.
`COc1cc(-c2c(-c3ccncc3)nn3c(-c4ccc(N5CC6CCC(C5)N6C)cc4)ccnc23)ccc1Cl` showed an IC50 [1] of 0.0097 µM and an IC50 (A-375) of 0.63 µM.
In the case of `Oc1cccc(-c2c(-c3ccncc3)nn3c(-c4ccc(NCC56CCN(CC5)CC6)cc4)ccnc23)c1`, the IC50 [1] is reported as 0.002 µM and the IC50 (A-375) is reported as 0.93 µM.
In the case of `Oc1cccc(-c2c(-c3ccncc3)nn3c(-c4ccc(N5C[C@@H]6C[C@H]5CN6)cc4F)ccnc23)c1`, the IC50 [1] is reported as < 0.00032 µM and the IC50 (A-375) is reported as 0.023 µM.
For `Oc1cccc(-c2c(-c3ccncc3)nn3c(-c4ccc(N5C[C@@H]6C[C@H]5CN6)cc4Cl)ccnc23)c1`, the IC50 [1] was < 0.00032 µM and the IC50 (A-375) was 0.016 µM.
With `Oc1cc(-c2c(-c3ccncc3)nn3c(-c4ccc(N5C[C@@H]6C[C@H]5CN6)cc4)ccnc23)ccc1F` the IC50 [1] was < 0.00032 µM and the IC50 (A-375) was 0.15 µM.
`CCOC(=O)c1cnn2c(-c3cccc(NC(=O)c4cccc(C(F)(F)F)c4)c3)ccnc12` showed an IC50 [1] of 1.5 µM.
